Where two headings read alike, the source gives them in different places.
Legend:
DGAT1 = target: T1, DGAT1 (Homo sapiens, UniProt O75907); assay: Human DGAT1 IC50 enzyme assay (Flashplate, 14C-labeled acyl-CoA); assay type: biochemical; design: made in house
T1 sequence (O75907 1-488): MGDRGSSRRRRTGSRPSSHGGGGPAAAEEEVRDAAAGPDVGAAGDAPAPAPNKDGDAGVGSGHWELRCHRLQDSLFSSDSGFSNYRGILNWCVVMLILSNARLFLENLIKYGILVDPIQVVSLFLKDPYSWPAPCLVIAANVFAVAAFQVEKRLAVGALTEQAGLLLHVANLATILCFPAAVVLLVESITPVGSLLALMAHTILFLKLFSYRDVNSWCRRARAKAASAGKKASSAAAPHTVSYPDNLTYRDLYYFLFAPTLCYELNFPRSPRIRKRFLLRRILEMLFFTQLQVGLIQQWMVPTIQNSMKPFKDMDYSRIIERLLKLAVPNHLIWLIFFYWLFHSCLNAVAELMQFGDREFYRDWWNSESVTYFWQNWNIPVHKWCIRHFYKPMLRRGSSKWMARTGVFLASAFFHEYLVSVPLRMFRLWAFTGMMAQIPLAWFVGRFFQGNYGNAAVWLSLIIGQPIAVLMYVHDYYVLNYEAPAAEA
Description: The ability of compounds to inhibit DGAT enzyme activity is determined by calculating IC50 values of test compounds. Ki values of DGAT1 are calculated as follows: Cheng-Prusoff equation: Ki=IC50/(1+[S]/Km)
(1) Human DGAT1 IC50 (nM) Experiment
Human DGAT1 activity was determined as follows:
Expressing human DGAT1 enzyme, used diacylglycerol and 14C-labeled acyl-CoA as the substrate, choose PE Company Flashplate testing board to build DGAT1 enzyme reaction system. 14C-labeled acyl-CoA binds to diacylglycerol by covalent bonding after enzymology reaction, and generates the product of 14C-labeled triglyceride. 14C-labeled acyl-CoA substrate is dissolved in reaction solution and 14C-labeled triglyceride product combine with phospholipids of Flashplate plate bottom layer, thus effectively separate labeled substrates and products. The radioactive of 14C-labeled triglyceride which is combined with phospholipid layer is counted, and the potencies of DGAT-1 inhibition for the compounds are determined by calculating the IC50 values.

[1] = Plasma pharmacokinetics in male SD rats; assay type: in vivo; conditions: male, SD, plasma, rat
Description: (3) Pharmacokinetics of Test Compounds
The purpose of this study is to determine the plasma pharmacokinetics of male SD rats. Two animals will receive a solution of test article in vehicle by single intravenous bolus via tail vein; the dosage is 2 mg/kg. Blood samples are taken at specified time points (0, 0.0833, 0.25, 0.5, 1, 2, 4, 7, 24 h) after dosing. Another two animals will receive a solution or suspension of TA in vehicle by oral gavage at 10 mg/kg. The schedule for sample collection is 0.5, 1, 2, 3, 4, 6, 24 h after dosing. A LC/MS/MS method is used to measure the concentration of test compound in plasma. Non-compartmental pharmacokinetic analysis is performed on the plasma concentration-time data. PK parameters of calculations are done using Phoenix WinNonlin. 6.2.1 software program.

[2] = average of first and second, read-out: hDGAT1 IC50(nM) Average
[3] = first determination, read-out: hDGAT1 IC50(nM) First
[4] = second determination, read-out: hDGAT1 IC50(nM) Second

SMILES | IC50 (DGAT1; [2]) | IC50 (DGAT1; [3]) | IC50 (DGAT1; [4]) | AUC(0-t) ([1]; iv, 1.78-2.06 mg/kg as printed in each cell, read-out: AUC0-1 (ng · n/mL)) | bioavailability ([1]; oral, 10 mg/kg)
Cc1cc(N2CCOc3ncnc(N)c3C2=O)cc(C)c1-c1cn(CCC(=O)O)nc1C [Compound 83, 3-(4-(4-(4-amino-5-oxo-7,8-dihydropyrimido [5,4-f][1,4]oxazepin-6(5H)-yl)-2,6-dimethylphenyl)-3-methyl-1H-pyrazol-1-yl)propanoic acid] | 45.6 nM | 52.8 nM | 38.4 nM |  | 
CC(C)(Cn1cc(-c2ccc(N3CCOc4ncnc(N)c4C3=O)cc2Cl)cn1)C(=O)N1CCCC1 [Compound 85] | 61.7 nM | 59.6 nM | 63.7 nM |  | 
Nc1ncnc2c1C(=O)N(c1ccc(-c3cnn(CC4CC4)c3)c(Cl)c1)CCO2 [Compound 87, 4-amino-6-(3-chloro-4-(1-(cyclopropylmethyl)-1H-pyrazol-4-yl)phenyl)-7,8-dihydropyrimido[5,4-f][1,4]oxazepin-5(6H)-one] | 46.7 nM | 49.3 nM | 44.2 nM |  | 
CC(C)(C)Cn1cc(-c2ccc(N3CCOc4ncnc(N)c4C3=O)cc2Cl)cn1 [Compound 88] | 25.7 nM | 27 nM | 24.4 nM |  | 
CN(C)C(=O)C(C)(C)Cn1cc(-c2ccc(N3CCOc4ncnc(N)c4C3=O)cc2Cl)cn1 [Compound 89, 3-(4-(4-(4-amino-5-oxo-7,8-dihydropyrimido [5,4-f][1,4]oxazepin-6(5H)-yl)-2-chlorophenyl)-1H-pyrazol-1-yl)-N,N,2,2-tetramethylpropanamide] | 80.7 nM | 71.2 nM | 90.1 nM |  | 
CCc1cc(N2CCOc3ncnc(N)c3C2=O)ccc1-c1cnn(CC(C)C)c1 [Compound 90, 4-amino-6-(3-ethyl-4-(1-isobutyl-1H-pyrazol-4-yl)phenyl)-7,8-dihydropyrimido [5,4-f][1,4]oxazepin-5(6H)-one] | 60 nM | 62 nM | 58 nM |  | 
CC(C)(F)Cn1cc(-c2ccc(N3CCOc4ncnc(N)c4C3=O)cc2Cl)cn1 [Compound 91, 4-amino-6-(3-chloro-4-(1-(2-fluoro-2-methylpropyl)-1H-pyrazol-4-yl)phenyl)-7,8-dihydropyrimido[5,4-f][1,4]oxazepin-5(6H)-one] | 20 nM | 12.5 nM | 27.5 nM |  | 
Cc1cc(N2CCOc3ncnc(N)c3C2=O)cc(C)c1-c1c(C)nn(CC(F)(F)F)c1C [Compound 93, 4-amino-6-(4-(3,5-dimethyl-1-(2,2,2-trifluoroethyl)-1H-pyrazol-4-yl)-3,5-dimethylphenyl)-7,8-dihydropyrimido[5,4-f][1,4]oxazepin-5(6H)-one] | 69.4 nM | 64.5 nM | 74.2 nM |  | 
COC(C)(C)Cn1cc(-c2ccc(N3CCOc4ncnc(N)c4C3=O)cc2Cl)cn1 [Compound 94, 4-amino-6-(3-chloro-4-(1-(2-methoxy-2-methylpropyl)-1H-pyrazol-4-yl)phenyl)-7,8-dihydropyrimido[5,4-f][1,4]oxazepin-5(6H)-one] | 59.1 nM | 63.1 nM | 55.1 nM |  | 
CC(C)(F)Cn1ccc(-c2ccc(N3CCOc4ncnc(N)c4C3=O)cc2Cl)n1 [Compound 95, 4-amino-6-(3-chloro-4-(1-(2-fluoro-2-methylpropyl)-1H-pyrazol-3-yl)phenyl)-7,8-dihydropyrimido[5,4-f][1,4]oxazepin-5(6H)-one] | 42.5 nM | 32.2 nM | 52.9 nM |  | 
CC(C)Cn1cc(-c2ccc(N3C(=O)c4c(N)ncnc4OC[C@H]3C)cc2Cl)cn1 [Compound 96, (R)-4-amino-6-(3-chloro-4-(1-isobutyl-1H-pyrazol-4-yl)phenyl)-7-methyl-7,8-dihydropyrimido[5,4-f][1,4] oxazepin-5-(6H)-one] | 70.5 nM | 69.4 nM | 71.7 nM |  | 
Cc1cc(N2CCOc3ncnc(N)c3C2=O)cc(C)c1-c1cn(CC(C)(C)F)nc1C [Compound 97, 4-amino-6-(4-(1-(2-fluoro-2-methylpropyl)-3-methyl-1H-pyrazol-4-yl)-3,5-dimethylphenyl)-7,8-dihydropyrimido[5,4-f][1,4]oxazepin-5(6H)-one] | 26.9 nM | 30.3 nM | 23.4 nM |  | 
Nc1ncnc2c1C(=O)N(c1ccc([C@H]3CC[C@H](CC(=O)O)CC3)cc1)CCO2 [PF-04620110, reference compound] |  |  |  | 2920 ng·h/mL | 109%

Source: US9809604B2, “DGAT1 inhibitor and preparation method and use thereof” (Qingdao Huanghai Pharmaceutical Co., Ltd., priority 2013, dated 2017)
